# Experimental data: patent US11357779B2 (G1 Therapeutics, Inc., priority 2018, dated 2022)
# Like-named read-outs stand apart in the source and are kept apart here.
# Assay: Plasma concentration versus time of Compound I and metabolite Compound III in patients dosed QD or BID with Form B of Compound II plus fulvestrant
# Format: in vivo, human
# Details: human, plasma, oral; for concentration at 0 h / concentration at 1 h / concentration at 2 h / concentration at 3 h / concentration at 4 h / concentration at 6 h / concentration at 8 h / concentration at 10 h / concentration at 12 h / concentration at 24 h: read-out: Compound I Concentration; for concentration at 8 day / concentration at 15 day / concentration at 22 day: Cohort 4, 500 mg QD of Form B; for concentration at 8 day: Day 8; for concentration at 15 day: Day 15; for concentration at 22 day: Day 22
# Text: Patients were enrolled into 1 of 2 parallel, independently operating, dose-escalation dosing cohorts with Form B of Compound II administered continuously either once daily (QD) or twice daily (BID) with food with fixed-dose fulvestrant (intramuscularly every 14 days for the first three injections and then every 28 days). Pre- or perimenopausal patients also received goserelin for the duration of study treatment. A […] agonist was started at least 28 days before the first dose of Form B, and those patients who were taking another LHRH agonist were switched to goserelin on Day 1. Patients were split into […] cohorts providing once a day (QD) dosing of 200 mg, 300 mg, 400 mg, 500 mg, or 650 mg of Form B, or twice a day (BID) dosing of 100 mg, 150 mg, or 200 mg of Form B. The second dose in BID cohorts was not administered in the evening until at least 12 hours after the initial morning dose of Form B. The dosing cohorts for Form B of Compound II are provided in Table 1.
# Blood samples were collected at the following time points relative to the morning dose of Form B at Day 1 and at Day 29: pre-dose (0 hour) and 1, 2, 3, 4, 6, 8, 10, 12 (prior to the evening dose in the BID cohorts), and 24 (prior to the next day's morning dose) hours after dosing. A 5-minute time window was allowed for samples collected between the predose and 3 hours after Form B dosing. A 15-minute window was allowed for samples collected between 4 to 12 hours after Form B dosing. A 1-hour window was allowed for the sample collected 24 hours after Form B dosing. Blood samples for Compound I PK trough levels were collected pre-dose at Day 8, Day 15, and Day 22 prior to the morning administration of Compound I. Plasma concentrations of Compound I and its metabolite, Compound III, were measured using validated methods.
# Analysis of plasma concentration versus time data for calculation of standard pharmacokinetic (PK) parameters following oral administration was conducted using Phoenix WinNonlin version 6.3 using actual blood sampling times.
# [1] = 500 mg, read-out: Trough Compound I Concentration, Max
# [2] = 500 mg, read-out: Trough Compound I Concentration, Median
structure (smiles),measurement,setting,value
"CC(C)N1CCN(c2ccc(Nc3ncc4cc5n(c4n3)C3(CCCCC3)CNC5=O)nc2)CC1 [Compound I, 2′-((5-(4-isopropylpiperazin-1-yl)pyridin-2-yl)amino)-7′,8′-dihydro-6′H-spiro[cyclohexane-1,9′-pyrazino[1′,2′:1,5]pyrrolo[2,3-d]pyrimidin]-6′-one]",concentration at 0 h,"500 mg, 500 mg QD of Form B, Day 1, 0.0 h, Median",0 ng/mL
same,concentration at 1 h,"500 mg, 500 mg QD of Form B, Day 1, 1.0 h, Mean",10.4 ng/mL
same,concentration at 1 h,"500 mg, 500 mg QD of Form B, Day 1, 1.0 h, Median",10.2 ng/mL
same,concentration at 2 h,"500 mg, 500 mg QD of Form B, Day 1, 2.0 h, Mean",18.5 ng/mL
same,concentration at 2 h,"500 mg, 500 mg QD of Form B, Day 1, 2.0 h, Median",18.1 ng/mL
same,concentration at 3 h,"500 mg, 500 mg QD of Form B, Day 1, 3.0 h, Mean",34.3 ng/mL
same,concentration at 3 h,"500 mg, 500 mg QD of Form B, Day 1, 3.0 h, Median",27.4 ng/mL
same,concentration at 4 h,"500 mg, 500 mg QD of Form B, Day 1, 4.0 h, Mean",35.4 ng/mL
same,concentration at 4 h,"500 mg, 500 mg QD of Form B, Day 1, 4.0 h, Median",35.3 ng/mL
same,concentration at 6 h,"500 mg, 500 mg QD of Form B, Day 1, 6.0 h, Mean",46.5 ng/mL
same,concentration at 6 h,"500 mg, 500 mg QD of Form B, Day 1, 6.0 h, Median",45.6 ng/mL
same,concentration at 8 h,"500 mg, 500 mg QD of Form B, Day 1, 8.0 h, Mean",40.6 ng/mL
same,concentration at 8 h,"500 mg, 500 mg QD of Form B, Day 1, 8.0 h, Median",42.3 ng/mL
same,concentration at 10 h,"500 mg, 500 mg QD of Form B, Day 1, 10.0 h, Mean",32.2 ng/mL
same,concentration at 10 h,"500 mg, 500 mg QD of Form B, Day 1, 10.0 h, Median",33.4 ng/mL
same,concentration at 12 h,"500 mg, 500 mg QD of Form B, Day 1, 12.0 h, Mean",27.8 ng/mL
same,concentration at 12 h,"500 mg, 500 mg QD of Form B, Day 1, 12.0 h, Median",28.3 ng/mL
same,concentration at 24 h,"500 mg, 500 mg QD of Form B, Day 1, […], Mean",8.93 ng/mL
same,concentration at 24 h,"500 mg, 500 mg QD of Form B, Day 1, […], Median",7.17 ng/mL
same,concentration at 0 h,"500 mg, 500 mg QD of Form B, Day 29, 0.0 h, Mean",14.4 ng/mL
same,concentration at 0 h,"500 mg, 500 mg QD of Form B, Day 29, 0.0 h, Median",15.3 ng/mL
same,concentration at 1 h,"500 mg, 500 mg QD of Form B, Day 29, 1.0 h, Mean",21.2 ng/mL
same,concentration at 1 h,"500 mg, 500 mg QD of Form B, Day 29, 1.0 h, Median",17.6 ng/mL
same,concentration at 2 h,"500 mg, 500 mg QD of Form B, Day 29, 2.0 h, Mean",34.2 ng/mL
same,concentration at 2 h,"500 mg, 500 mg QD of Form B, Day 29, 2.0 h, Median",33.8 ng/mL
same,concentration at 3 h,"500 mg, 500 mg QD of Form B, Day 29, 3.0 h, Mean",40.3 ng/mL
same,concentration at 3 h,"500 mg, 500 mg QD of Form B, Day 29, 3.0 h, Median",41.4 ng/mL
same,concentration at 4 h,"500 mg, 500 mg QD of Form B, Day 29, 4.0 h, Mean",41.8 ng/mL
same,concentration at 4 h,"500 mg, 500 mg QD of Form B, Day 29, 4.0 h, Median",44.9 ng/mL
same,concentration at 6 h,"500 mg, 500 mg QD of Form B, Day 29, 6.0 h, Mean",41.5 ng/mL
same,concentration at 6 h,"500 mg, 500 mg QD of Form B, Day 29, 6.0 h, Median",43.2 ng/mL
same,concentration at 8 h,"500 mg, 500 mg QD of Form B, Day 29, 8.0 h, Mean",34.1 ng/mL
same,concentration at 8 h,"500 mg, 500 mg QD of Form B, Day 29, 8.0 h, Median",33.5 ng/mL
same,concentration at 10 h,"500 mg, 500 mg QD of Form B, Day 29, 10.0 h, Mean",26.7 ng/mL
same,concentration at 10 h,"500 mg, 500 mg QD of Form B, Day 29, 10.0 h, Median",25.6 ng/mL
same,concentration at 12 h,"500 mg, 500 mg QD of Form B, Day 29, 12.0 h, Mean",24.4 ng/mL
same,concentration at 12 h,"500 mg, 500 mg QD of Form B, Day 29, 12.0 h, Median",25.2 ng/mL
same,concentration at 24 h,"500 mg, 500 mg QD of Form B, Day 29, […], Mean",12.5 ng/mL
same,concentration at 24 h,"500 mg, 500 mg QD of Form B, Day 29, […], Median",13 ng/mL
same,concentration at 8 day,[1],23.5 ng/mL
same,concentration at 8 day,[2],17.2 ng/mL
same,concentration at 15 day,[1],32.8 ng/mL
same,concentration at 15 day,[2],23.9 ng/mL
same,concentration at 22 day,[1],27.3 ng/mL
same,concentration at 22 day,[2],17.7 ng/mL
same,concentration at 0 h,"650 mg, 650 mg QD of Form B, Day 1, 0.0 h, Mean",0 ng/mL
same,concentration at 0 h,"650 mg, 650 mg QD of Form B, Day 1, 0.0 h, Median",0 ng/mL
same,concentration at 1 h,"650 mg, 650 mg QD of Form B, Day 1, 1.0 h, Mean",12.7 ng/mL
same,concentration at 1 h,"650 mg, 650 mg QD of Form B, Day 1, 1.0 h, Median",9.68 ng/mL
same,concentration at 2 h,"650 mg, 650 mg QD of Form B, Day 1, 2.0 h, Mean",24.8 ng/mL
same,concentration at 2 h,"650 mg, 650 mg QD of Form B, Day 1, 2.0 h, Median",19.1 ng/mL
same,concentration at 3 h,"650 mg, 650 mg QD of Form B, Day 1, 3.0 h, Mean",30.9 ng/mL
same,concentration at 3 h,"650 mg, 650 mg QD of Form B, Day 1, 3.0 h, Median",31.6 ng/mL
same,concentration at 4 h,"650 mg, 650 mg QD of Form B, Day 1, 4.0 h, Mean",43.7 ng/mL
same,concentration at 4 h,"650 mg, 650 mg QD of Form B, Day 1, 4.0 h, Median",43.5 ng/mL
same,concentration at 6 h,"650 mg, 650 mg QD of Form B, Day 1, 6.0 h, Mean",52.7 ng/mL
same,concentration at 6 h,"650 mg, 650 mg QD of Form B, Day 1, 6.0 h, Median",49.8 ng/mL
same,concentration at 8 h,"650 mg, 650 mg QD of Form B, Day 1, 8.0 h, Mean",59.6 ng/mL
